Test results: patent US20250332167A1, “PHARMACEUTICAL USE OF CDK 4/6 INHIBITOR” (priority 2021, published 2025)
“And” between values parts separate entries of the source, which are not always exact repeats. Equal values may be shown once.

What was measured:
NCI-H1915 = test: Proliferation inhibition, non-small cell lung cancer cell line NCI-H1915; assay type: cell-based; conditions: Homo sapiens, NCI-H1915, 72 h
Procedure: (§1) Sixteen non-small cell lung cancer cell lines, including NCI-H1792, NCI-H1703, NCI-H441, SNU-761, NCI-H1975, NCI-H358, NCI-H1838, NCI-H1915, A549, SK-MES-1, NCI-H292, PC-9, NCI-H460, NCI-H23, NCI-H1581, and HLF, were used for the proliferation inhibition assay of the present invention compound. […] The cell detection equipment used was In Cell Analyzer 2200 (GE Healthcare).
(§2) With 60 μM as the initial concentration, ten points were obtained by serial five-fold dilution.
(§3) Each kind of cell in logarithmic growth phase was inoculated with 4000 cells/100 μl/well into a black transparent bottom 96-well plate and cultured overnight at 37° C. The next day, the plate was taken out, and 20 μL of the prepared sample dilutions was added to each well. The plate was then subjected to treatment at 37° C. for 72 hours. After the treatment period of 72 hours, the plate was taken out and 50 μL of neutral formaldehyde fixative (formaldehyde: PBS=1:9, 50 μl/well) was added to each well. The plate was then fixed at room temperature for 10-30 minutes. Subsequently, the wells were washed twice with 1× PBS (100 μl/well) and treated with 0.2% Triton™-X100 for 5-10 minutes to permeabilize the cells. […] The inhibitory rates of each compound at different concentration points were calculated by using the following formula, and IC50 values were obtained through curve fitting using GraphPad Prism 6.0 software.

NCI-H292 = test: Proliferation inhibition, non-small cell lung cancer cell line NCI-H292; assay type: cell-based; conditions: Homo sapiens, NCI-H292, 72 h
Procedure: as §1, §2, §3

PC-9 = test: Proliferation inhibition, non-small cell lung cancer cell line PC-9; assay type: cell-based; conditions: Homo sapiens, PC-9, 72 h
Procedure: as §1, §2, §3

NCI-H1581 = test: Proliferation inhibition, non-small cell lung cancer cell line NCI-H1581; assay type: cell-based; conditions: Homo sapiens, NCI-H1581, 72 h
Procedure: as §1, §2, §3

HLF = test: Proliferation inhibition, non-small cell lung cancer cell line HLF; assay type: cell-based; conditions: Homo sapiens, 72 h
Procedure: as §1, §2, §3

[1] = test system: Human glioblastoma model (BN2289); test: Human glioblastoma xenograft mouse model (BN2289); assay type: in vivo, BALB/C nude mice; conditions: for Day 21 Tumor Volume / Relative Average Tumor Volume / T/C (relative tumor growth rate) / TGI (relative tumor inhibition rate): day 21
From the text: Human glioblastoma model (BN2289, Crown Bioscience Co., Ltd.) tumor fragments were cut into small pieces with a diameter of 2-3 mm and subcutaneously inoculated into the right side of BALB/C nude mice. Tumor growth was monitored regularly, and when the tumors grew to an average volume of approximately 100-200 mm^3, mice were randomly divided into groups based on the tumor size.
Each group consisted of 8 mice and received oral gavage administration once daily for a total of 28 days. Regular observations were made on tumor volume and changes in body weight. Efficacy evaluation was conducted based on the relative tumor growth rate (T/C) and the relative tumor inhibition rate (TGI).
(§4) The formula for calculating tumor volume was: Tumor Volume (mm^3)=½×(a×b^2) (where “a” represents the long diameter and “b” represents the short diameter).
(§5) The relative tumor growth rate (T/C) is the percentage value of the relative tumor volume or weight between the treatment group and the control group at a certain time point. The calculation formula is as follows: • T/C(%)=TRTV/CRTV×100% (TRTV: Average RTV of the treatment group; CRTV: Average RTV of the Vehicle group; RTV=Vt/V0, where V0 is the tumor volume of the animal at the time of grouping and Vt is the tumor volume of the animal after treatment).
(§6) (T and C are the relative tumor volume (RTV) or weight (TW) of the treatment group and control group at a specific time point, respectively).

NCI-H1975 xenograft = test: Human non-small cell lung cancer NCI-H1975 xenograft mouse model; assay type: in vivo, Balb/c nude mice; conditions: for T/C / TGI / Tumor relative volume (x ± S) / Tumor volume (x ± S): 16 days after administration; for Body weight change: Day 20 of treatment
From the text: as §4, §5, §6
NCI-H1975 cells were cultured in RPMI1640 medium containing 10% fetal bovine serum. Log-phase NCI-H1975 cells were collected, suspended in PBS to an appropriate concentration, and used for subcutaneous tumor implantation in Balb/c nude mice. Each female mouse was implanted with 0.1 ml of NCI-H1975 cells subcutaneously. When the average tumor volume reached 171 mm^3, the mice were randomly divided into groups based on tumor size.
The positive control drugs were Palbociclib and Abemaciclib.
Each group consisted of 8 mice, and oral gavage administration was performed once daily for a total of 21 days. Tumor volume and body weight changes were observed regularly, and efficacy evaluation was conducted based on relative tumor proliferation rate (T/C) and relative tumor growth inhibition rate (TGI). The calculation methods for tumor volume, T/C, and TGI are described in Example 3.

[2] = 10 mg/kg oral gavage once daily
[3] = 25 mg/kg oral gavage once daily
[4] = 50 mg/kg oral gavage once daily

CC1=Nc2c(F)cc(-c3nc(Nc4ccc(C5CCN(C)CC5)cn4)ncc3F)cc2C12CCCC2.O=C(O)/C=C/C(=O)O [Compound A, Fumarate salt of 5-fluoro-4-(7′-fluoro-2′-methylspiro[cyclopentane-1,3′-indol]-5′-yl)-N-(5-(1-methylpiperidin-4-yl)pyridin-2-yl)pyrimidine-2-amine]
IC50 (NCI-H1915): 53 nM | IC50 (NCI-H292): 73 nM | IC50 (PC-9): 180 nM | IC50 (NCI-H1581): 1120 nM | IC50 (HLF): 2010 nM | Day 21 Tumor Volume ([1]; 5 mg/kg oral gavage once daily): 2038.41 ± 177.46 mm^3 | Relative Average Tumor Volume ([1]; 5 mg/kg oral gavage once daily): 13.80 | T/C (relative tumor growth rate) ([1]; 5 mg/kg oral gavage once daily): 95.08% | TGI (relative tumor inhibition rate) ([1]; 5 mg/kg oral gavage once daily): 4.92% | Day 21 Tumor Volume [1, 2]: 1900.70 ± 134.20 mm^3 | Relative Average Tumor Volume [1, 2]: 12.81 | T/C (relative tumor growth rate) [1, 2]: 88.24% | TGI (relative tumor inhibition rate) [1, 2]: 11.76% | Day 21 Tumor Volume [1, 3]: 1302.81 ± 119.99 mm^3 | Relative Average Tumor Volume [1, 3]: 8.80 | T/C (relative tumor growth rate) [1, 3]: 60.61% | TGI (relative tumor inhibition rate) [1, 3]: 39.39% | Day 21 Tumor Volume [1, 4]: 938.13 ± 52.26 mm^3 | Relative Average Tumor Volume [1, 4]: 6.32 | T/C (relative tumor growth rate) [1, 4]: 43.56% | TGI (relative tumor inhibition rate) [1, 4]: 56.44% | Drug toxicity / tolerance (body weight) ([1]; 5-50 mg/kg oral gavage once daily, 28 days): no significant toxic side effects | T/C (NCI-H1975 xenograft; 5 mg/kg oral gavage once daily): 85% | TGI (NCI-H1975 xenograft; 5 mg/kg oral gavage once daily): 15% | Tumor relative volume (x ± S) (NCI-H1975 xenograft; 5 mg/kg oral gavage once daily): 9.8 ± 0.6 | Tumor volume (x ± S) (NCI-H1975 xenograft; 5 mg/kg oral gavage once daily): 1889 mm^3 and 1889 ± 60 mm^3 | T/C (NCI-H1975 xenograft; [2]): 72% | TGI (NCI-H1975 xenograft; [2]): 28% | Tumor relative volume (x ± S) (NCI-H1975 xenograft; [2]): 8.4 ± 1.0 | Tumor volume (x ± S) (NCI-H1975 xenograft; [2]): 1647 mm^3 and 1647 ± 243 mm^3 | T/C (NCI-H1975 xenograft; [3]): 50% | TGI (NCI-H1975 xenograft; [3]): 50% | Tumor relative volume (x ± S) (NCI-H1975 xenograft; [3]): 5.8 ± 0.3 | Tumor volume (x ± S) (NCI-H1975 xenograft; [3]): 1141 mm^3 and 1141 ± 112 mm^3 | Body weight change (NCI-H1975 xenograft; [3]): slight decrease in body weight | T/C (NCI-H1975 xenograft; [4]): 31% | TGI (NCI-H1975 xenograft; [4]): 69% | Tumor relative volume (x ± S) (NCI-H1975 xenograft; [4]): 3.6 ± 0.2 | Tumor volume (x ± S) (NCI-H1975 xenograft; [4]): 709 mm^3 and 709 ± 47 mm^3 | Body weight change (NCI-H1975 xenograft; [4]): slight decrease in body weight
